Data on 28 compounds can be found in ChEMBL document CHEMBL5390303, “Discovery of Potent and Oral Bioavailable MAT2A Inhibitors for the Treatment of MTAP-Deleted Tumors” (ACS Med Chem Lett, 2023).

The structures appear in SMILES notation.

Data set [1] concerns the target S-adenosylmethionine synthase isoform type-2 (Homo sapiens, UniProt P31153). The data set is described as follows: Inhibition of MAT2A (unknown origin) using L-methionine as substrate preincubated for 30 mins followed by substrate addition measured after 60 mins by colorimetric assay.
Data set [2] in a line: Plasma protein binding in human assessed as unbound fraction at 1 uM incubated for 6 hrs by LC-MS/MS based rapid equlibrium dialysis method relative to control. Format: ADME, cell-free.
The target of a further data set is Cytochrome P450 2C19 (Homo sapiens, UniProt P33261). The data set is described as follows: Inhibition of human liver microsomes CYP2C19 incubated for 5 mins with compound followed by substrate and NADPH addition measured after 10 mins by LC-MS/MS analysis. It is filed as ADME, Microsome. On the technique in general: Microsomes from liver hold many membrane-bound enzymes, among them those of drug oxidation.

Data set [3] in a line: Cmax in male Beagle dog at 3 mg/kg, po incubated for 24 hrs by LC-MS/MS analysis. It is filed as ADME, organism-based, Canis lupus familiaris. Details: dose 3 mg/kg, time 24 hrs, route po. The conditions noted are these: in vivo.
For a further data set, the target named is Cytochrome P450 2D6 (Homo sapiens, UniProt P10635). The data set is described as follows: Inhibition of human liver microsomes CYP2D6 using Dextromethorphan as substrate incubated for 5 mins with compound followed by substrate and NADPH addition measured after 10 mins by LC-MS/MS analysis. It is filed as ADME, Microsome.
Data set [4] deals with HCT-116. The experiment in a line: Antitumor activity against MTAP-knockout human HCT-116 cells xenografted in Nu/Nu mouse model assessed as reduction in SAM concentration at 20 mg/kg, po qd administered for 21 days measured after 10 hrs post last dose relative to control. Format: functional. The arrangement: scale not given: the % may be the effect or the level left. The note with it: time 514 hrs. In general terms: Xenograft models place foreign cells or tissue in a host animal.

Data set [5] in a line: Plasma protein binding in rat assessed as unbound fraction at 1 uM incubated for 6 hrs by LC-MS/MS based rapid equlibrium dialysis method. It is filed as ADME, cell-free.
Data set [6] in a line: Half life in male Beagle dog at 3 mg/kg, po incubated for 24 hrs by LC-MS/MS analysis. It is filed as ADME, organism-based, Canis lupus familiaris. The note with it: in vivo.
Data set [7] can be described thus: Metabolic stability in human liver microsomes assessed as intrinsic clearance. The conditions noted are these: read-out: CLH. Format: ADME, Microsome.
A further data set has as its target Cytochrome P450 3A4 (Homo sapiens, UniProt P08684). The data set is described as follows: Inhibition of human liver microsomes CYP3A4 using Midazolam as substrate incubated for 5 mins with compound followed by substrate and NADPH addition measured after 5 mins by LC-MS/MS analysis. Format: ADME, Microsome.
A short description of data set [8]: Cmax in male Sprague-Dawley rat plasma at 10 mg/kg, po incubated for 24 hrs by LC-MS/MS analysis. The arrangement: time 24 hrs, dose 10 mg/kg, route po. Format: ADME, organism-based.
Data set [9] in a line: AUClast in male Beagle dog at 3 mg/kg, po incubated for 24 hrs by LC-MS/MS analysis. Format: ADME, organism-based, Canis lupus familiaris. Details: dose 3 mg/kg, time 24 hrs, route po. The conditions noted are these: in vivo.
Data set [10] deals with HCT-116. The data set is described as follows: Antiproliferative activity against MTAP knockout human HCT-116 assessed as inhibition of cell proliferation incubated for 6 days by alamar blue reagent based analysis. The conditions noted are these: HCT-116, 144 h. It is filed as functional. On the technique in general: Alamar Blue is a resazurin reagent that responds to reducing activity.

A short description of data set [11]: AUClast in ICR mouse plasma at 10 mg/kg, IG incubated for 24 hrs by LC-MS/MS analysis. Format: ADME, organism-based. Details: dose 10 mg/kg, time 24 hrs, route ig. The note with it: po.
A short description of data set [12]: Cmax in ICR mouse plasma at 10 mg/kg, IG measured after 24 hrs by LC-MS/MS analysis. The note with it: po. Details: dose 10 mg/kg, time 24 hrs, route ig. Format: ADME, organism-based.
The target of another data set is Cytochrome P450 2C9 (Homo sapiens, UniProt P11712). The experiment in a line: Inhibition of human liver microsomes CYP2C9 using Diclofenac as substrate incubated for 5 mins with compound followed by substrate and NADPH addition measured after 10 mins by LC-MS/MS analysis. It is filed as ADME, Microsome.
A short description of data set [13]: Toxicity in Nu/Nu mouse xenografted with MTAP-knockout human HCT-116 cells assessed as maximum body weight loss at 10 to 20 mg/kg, po qd measured after 21 days. The note with it: in vivo, 504 h, dose 10-20 mg/kg, time 21 day. It is filed as organism-based.
Data set [14] is described as follows: AUC(0 to last) in male Sprague-Dawley rat at 10 mg/kg, po incubated for 24 hrs by LC-MS/MS analysis. The arrangement: dose 10 mg/kg, time 24 hrs, route po. The note with it: in vivo. Format: ADME, organism-based.
The nature of data set [15]: Plasma protein binding in mouse assessed as unbound fraction at 1 uM incubated for 6 hrs by LC-MS/MS based rapid equlibrium dialysis method. Format: ADME, cell-free.
A short description of data set [16]: Half life in ICR mouse plasma at 10 mg/kg, IG measured after 24 hrs by LC-MS/MS analysis. Format: ADME, organism-based. The conditions noted are these: po.
Data set [17] is described as follows: Tmax in ICR mouse plasma at 10 mg/kg, IG measured after 24 hrs by LC-MS/MS analysis. The note with it: po. Format: ADME, organism-based.
A short description of data set [18]: Plasma protein binding in dog assessed as unbound fraction at 1 uM incubated for 6 hrs by LC-MS/MS based rapid equlibrium dialysis method. It is filed as ADME, cell-free, Canis lupus familiaris.
The subject of data set [19] is HCT-116. The data set is described as follows: Antitumor activity against MTAP-knockout human HCT-116 cells xenografted in Nu/Nu mouse model assessed as tumor growth inhibition at 10 mg/kg, po qd measured after 21 days relative to control. It is filed as functional. The conditions noted are these: HCT-116, 504 h, time 21 day, read-out: TGI.
The test system of data set [20] is HCT-116. The data set is described as follows: Antitumor activity against MTAP-knockout human HCT-116 cells xenografted in Nu/Nu mouse model assessed as tumor growth inhibition at 20 mg/kg, po qd measured after 21 days relative to control. Format: functional. The note with it: HCT-116, 504 h, time 21 day, read-out: TGI.
Data set [21] in a line: Half life in male Sprague-Dawley rat plasma at 10 mg/kg, po incubated for 24 hrs by LC-MS/MS analysis. Format: ADME, organism-based.
Data set [22] in a line: Tmax in male Sprague-Dawley rat plasma at 10 mg/kg, po incubated for 24 hrs by LC-MS/MS analysis. It is filed as ADME, organism-based.
A short description of data set [23]: Tmax in male Beagle dog at 3 mg/kg, po incubated for 24 hrs by LC-MS/MS analysis. The note with it: in vivo. Format: ADME, organism-based, Canis lupus familiaris.
In data set [24] the test system is HCT-116. The experiment in a line: Antitumor activity against MTAP-knockout human HCT-116 cells xenografted in Nu/Nu mouse model assessed as inhibition of tumor growth at 50 mg/kg, po qd measured after 21 days relative to control. It is filed as functional. The note with it: HCT-116, 504 h, time 21 day, read-out: TGI.

Sequence of S-adenosylmethionine synthase isoform type-2 (P31153 whole entry, canonical isoform): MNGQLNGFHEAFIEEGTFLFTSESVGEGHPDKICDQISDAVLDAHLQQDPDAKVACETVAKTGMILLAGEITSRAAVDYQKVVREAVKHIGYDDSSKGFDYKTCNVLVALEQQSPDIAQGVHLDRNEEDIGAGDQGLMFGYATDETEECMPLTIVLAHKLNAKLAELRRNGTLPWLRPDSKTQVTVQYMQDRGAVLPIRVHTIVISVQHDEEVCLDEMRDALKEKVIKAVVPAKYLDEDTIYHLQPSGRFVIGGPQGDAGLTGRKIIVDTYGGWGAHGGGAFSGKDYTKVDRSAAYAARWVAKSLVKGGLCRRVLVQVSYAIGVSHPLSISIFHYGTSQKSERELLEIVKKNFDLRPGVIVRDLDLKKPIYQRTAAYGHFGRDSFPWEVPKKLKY
Sequence of Cytochrome P450 3A4 (P08684 whole entry): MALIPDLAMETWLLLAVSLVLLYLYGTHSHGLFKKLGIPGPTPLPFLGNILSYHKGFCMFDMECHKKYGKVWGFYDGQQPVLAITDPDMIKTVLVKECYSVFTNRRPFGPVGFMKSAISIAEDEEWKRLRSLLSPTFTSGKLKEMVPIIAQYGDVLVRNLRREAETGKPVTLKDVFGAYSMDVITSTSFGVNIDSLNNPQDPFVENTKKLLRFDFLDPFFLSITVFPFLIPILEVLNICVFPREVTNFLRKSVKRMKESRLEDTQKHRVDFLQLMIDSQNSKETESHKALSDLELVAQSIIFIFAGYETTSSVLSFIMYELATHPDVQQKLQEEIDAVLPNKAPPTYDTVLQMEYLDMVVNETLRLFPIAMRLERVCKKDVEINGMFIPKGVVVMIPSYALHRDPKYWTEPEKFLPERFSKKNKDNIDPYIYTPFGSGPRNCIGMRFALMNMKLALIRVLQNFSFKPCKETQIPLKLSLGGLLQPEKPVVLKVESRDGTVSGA
Sequence of Cytochrome P450 2D6 (P10635 whole entry): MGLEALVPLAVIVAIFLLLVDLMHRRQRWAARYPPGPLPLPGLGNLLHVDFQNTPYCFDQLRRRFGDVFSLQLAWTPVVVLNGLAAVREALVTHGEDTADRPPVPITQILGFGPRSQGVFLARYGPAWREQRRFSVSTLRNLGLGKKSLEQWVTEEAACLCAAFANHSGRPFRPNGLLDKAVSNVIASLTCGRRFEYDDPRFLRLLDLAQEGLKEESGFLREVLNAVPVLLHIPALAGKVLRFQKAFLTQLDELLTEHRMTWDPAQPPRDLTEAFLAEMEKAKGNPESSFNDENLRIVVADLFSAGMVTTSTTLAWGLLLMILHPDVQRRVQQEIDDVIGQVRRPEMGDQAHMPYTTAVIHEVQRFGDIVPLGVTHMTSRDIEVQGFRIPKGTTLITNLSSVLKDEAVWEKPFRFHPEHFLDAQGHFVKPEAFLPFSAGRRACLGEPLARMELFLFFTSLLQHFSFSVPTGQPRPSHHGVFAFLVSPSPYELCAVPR
Sequence of Cytochrome P450 2C9 (P11712 whole entry): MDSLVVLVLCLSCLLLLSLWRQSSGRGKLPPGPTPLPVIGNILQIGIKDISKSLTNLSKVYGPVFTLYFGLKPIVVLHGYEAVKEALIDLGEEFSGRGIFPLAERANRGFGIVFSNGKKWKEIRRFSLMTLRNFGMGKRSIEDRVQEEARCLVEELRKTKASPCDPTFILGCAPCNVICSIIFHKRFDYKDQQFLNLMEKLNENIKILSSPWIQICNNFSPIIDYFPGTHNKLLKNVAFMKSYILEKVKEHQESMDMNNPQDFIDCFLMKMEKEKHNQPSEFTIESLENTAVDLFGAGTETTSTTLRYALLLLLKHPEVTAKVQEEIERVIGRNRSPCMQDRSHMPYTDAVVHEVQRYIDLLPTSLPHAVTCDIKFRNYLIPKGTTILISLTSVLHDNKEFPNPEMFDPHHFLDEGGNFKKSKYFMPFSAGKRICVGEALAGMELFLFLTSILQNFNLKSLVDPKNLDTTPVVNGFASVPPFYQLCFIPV
Sequence of Cytochrome P450 2C19 (P33261 whole entry): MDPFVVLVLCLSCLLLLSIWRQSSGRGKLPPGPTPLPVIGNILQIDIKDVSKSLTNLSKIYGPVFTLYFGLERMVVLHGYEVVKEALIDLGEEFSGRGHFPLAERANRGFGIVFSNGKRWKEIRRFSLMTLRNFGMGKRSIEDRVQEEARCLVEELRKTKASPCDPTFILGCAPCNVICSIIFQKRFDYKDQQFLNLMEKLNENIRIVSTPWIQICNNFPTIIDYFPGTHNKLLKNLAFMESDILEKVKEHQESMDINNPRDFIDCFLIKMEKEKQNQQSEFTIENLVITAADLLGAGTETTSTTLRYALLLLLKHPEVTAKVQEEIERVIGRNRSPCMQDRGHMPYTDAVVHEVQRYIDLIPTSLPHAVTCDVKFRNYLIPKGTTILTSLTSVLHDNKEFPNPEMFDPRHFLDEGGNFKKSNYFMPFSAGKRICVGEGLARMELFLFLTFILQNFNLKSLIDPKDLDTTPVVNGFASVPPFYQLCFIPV

In data set [1], `CC(C)Nc1nc(=O)c(-c2ccccc2F)c2cc(C(F)(F)F)ccn12` came in with an IC50 of 80 nM.
On the same count and under the same terms, the figure for `O=c1nc(NC2CC2)n2ccc(C(F)(F)F)cc2c1-c1cccc(F)c1` is 46 nM; for `CNc1nc(=O)c(-c2ccccc2Cl)c2cc(C(F)(F)F)ccn12` it is 49 nM; for `CNc1nc(=O)c(-c2cccc(C#N)c2)c2cc(C(F)(F)F)ccn12` it is 199 nM.
The same measure, in the same setting: the figure for `CNc1nc(=O)c(-c2c(F)cccc2F)c2cc(C(F)(F)F)ccn12` is 65 nM; for `CNc1nc(=O)c(-c2ccccc2Cl)c2cc(C3CC3)ccn12` it is 53 nM.
On the same count and under the same terms, the figure for `O=c1nc(N[C@H]2C[C@H](O)C2)n2ccc(C(F)(F)F)cc2c1-c1ccccc1F` is 192 nM; for `O=c1nc(N2CCCC2)n2ccc(C(F)(F)F)cc2c1-c1ccccc1F` it is 531 nM; for `O=c1nc(NCC(F)F)n2ccc(C(F)(F)F)cc2c1-c1ccccc1F` it is 119 nM.
In data set [1], `CNc1cc(=O)n(-c2ccccc2Cl)c2nc(C(F)(F)F)ccc12` displayed an IC50 of 252 nM.
Same read-out and setting: the figure for `CNc1nc(=O)c(-c2ccccc2Cl)c2cc(C)ccn12` is 143 nM; for `CNc1nc(=O)c(-c2cccc(C)c2)c2cc(C(F)(F)F)ccn12` it is 60 nM; for `CNc1nc(=O)c(-c2ccccc2Cl)c2cc(C(F)(F)F)cnn12` it is > 10000 nM.
`O=c1nc(NC2CC2)n2ccc(C(F)(F)F)cc2c1-c1cccnc1F`: the unbound share (fraction unbound) at 6 h, 1 µM in data set [2] stood at 0.216; in data set [5], 0.329; in data set [15], 0.091; in data set [18] it was 0.325. The IC50 on Cytochrome P450 2C19 was > 10000 nM; at Cytochrome P450 2D6 it was > 10000 nM; at Cytochrome P450 3A4, > 10000 nM; in data set [1], 40 nM; with HCT-116 [10] it was 273 nM; on Cytochrome P450 2C9, > 10000 nM. The Cmax in data set [3] is 1680 ng/mL; in data set [8], 2820 ng/mL; in [12], 16200 ng/mL. The Activity in the data set on HCT-116 [4] is reported as 79%; in data set [13], 11%. Besides, the half-life in [6] is 2.6 h; in [16] it was 3.3 h; in data set [21] it was 3 h. For the same compound, the CLint scaled in [7] worked out at 1.4 mL/min/kg. For the same compound, the AUC(0-t) at 24 h turned out to be 9310 ng·h/mL in data set [9], 34000 ng·h/mL in data set [11] and 16200 ng·h/mL in [14]. Moreover, the Tmax in [17] came out at 0.67 h; in [22], 3.3 h; in [23] it was 1.3 h. Also, the inhibition in vivo at 10 mg/kg in the data set on HCT-116 [19] came to 48%. In addition, in the data set with HCT-116 [20], the inhibition in vivo at 20 mg/kg is 60%.
In [1], `CNc1nc(=O)c(-c2ccc(C)cc2)c2cc(C(F)(F)F)ccn12` displayed a half-inhibitory concentration (IC50) of 347 nM.
Consider `CNc1nc(=O)c(-c2ccccc2F)c2cc(C(F)(F)F)ccn12`, for which the IC50 in [1] came out at 45 nM.
Turning to `CNc1nc(=O)c(-c2ccccc2C(C)C)c2cc(C(F)(F)F)ccn12`, inhibition in [1] was half-maximal at 68 nM (IC50).
Turning to `O=c1nc(NC2CC2)n2ccc(C(F)(F)F)cc2c1-c1cccc(O)c1F`, the midpoint of inhibition in [1], the IC50, lay at 31 nM. This compound yielded an AUC(0-t) at 24 h in data set [11] of 8880 ng·h/mL. In addition, the peak level in data set [12] (Cmax) was 3960 ng/mL. The same compound had a half-life in data set [16] of 7.7 h. The time of peak concentration (Tmax) in data set [17] was 0.33 h.
In [1], `CNc1nc(=O)c(-c2ccccc2)c2cc(C(F)(F)F)ccn12` yielded a half-inhibitory concentration (IC50) of 65 nM.
The compound `CNc1nc(=O)n(-c2ccccc2Cl)c2cc(C(F)(F)F)sc12` gave an IC50 in [1] of 268 nM.
On the same count and under the same terms, under `CNc1nc(=O)c(-c2cccc(F)c2)c2cc(C(F)(F)F)ccn12` stands 42 nM; under `O=c1nc(NC2CC2)n2ccc(C(F)(F)F)cc2c1-c1ccccc1F`, 120 nM.
The same measure, in the same setting: under `CNc1nc(=O)n(-c2ccccc2Cl)c2c1CCN(C)C2` stands > 10000 nM; under `O=C(C1CC1)N1CC(=O)N(c2ccccc2Cl)c2cc(C(F)(F)F)ccc21`, 2550 nM.
On the same count and under the same terms, the figure for `CNc1nc(=O)c(-c2cccc(Cl)c2)c2cc(C(F)(F)F)ccn12` is 107 nM; for `O=c1nc(NC2CCC2)n2ccc(C(F)(F)F)cc2c1-c1ccccc1F` it is 121 nM; for `CNc1nc(=O)c(-c2ccccc2Cl)c2cc(C(F)F)ccn12` it is 49 nM.
With `COc1ccc(-c2c(Nc3ccccn3)[nH]c3c(C4=CCCCC4)c(-c4ccccc4)nn3c2=O)cc1`, the inhibition in vivo at 50 mg/kg with HCT-116 [24] amounted to 43%.

Usually IC50 stands for the concentration that inhibits the measured activity by half. For orientation: fraction unbound means free concentration divided by total concentration. What is called Cmax is the maximum level reached in the sampled fluid or tissue. By half-life is commonly meant how long it takes for the measured level to halve. The term AUC(0-t) denotes the area under the concentration-time curve up to a stated or last time point. As a reminder, the Tmax is the time from dosing to the highest level.
